Laboratory results taken from US10959428B2, “Hematophagous arthropod repellent composition” (WOOJUNG BIO INC., priority 2017, dated 2021).

System: adult Aedes aegypti
Experiment: cage-in-arm test, complete protection time (CPT)
Format: in vivo
Details: 4 mg, adult Aedes aegypti
Experimental: For determining the repellency of prepared samples against adults of Aedes aegypti and Aedes albopicus, a cage-in-arm test was carried out as a method for exposure to skin. Namely, on a back of the hand of a rubber glove, a hole with diameter of 5 cm was created, and, onto an exposed back of the testees, various samples prepared by dissolution in 100 μl of ethanol were applied, and then the skin test was carried out. The testees were healthy males between the ages of 21 and 40. The control group was treated with 100 μl of ethanol only. Female adults (5 to 8 day old) of Aedes aegypti or Aedes albopicus (250 to 300 mosquitoes) were added to a cage for growing adult mosquitoes (25×25×25 cm^3), and adapted to the indoor conditions for 12 to 24 hours before starting the test. When the upper arm of the control group is exposed for 1 minute and at least 6 mosquitoes sit on the upper arm or show a bloodsucking behavior, it was determined as sufficient biting pressure, and then the repellency test was carried out. […] The time period between the time point with initial treatment of a material and the time point at which 2 or more mosquitoes continuously sit on the treatment area or show the bloodsucking behavior was defined as complete protection time (CPT). Furthermore, for obtaining the repellency with regard to concentration, exposure was made for a constant time period regardless of the above and the repellency was calculated by using the following formula. Accordingly, the effect was compared among each test samples. All tests were carried out in triplicate. Repellency %=(Number of insects showing bloodsucking behavior in non-treatment group−Number of insects showing bloodsucking behavior in treatment group)/Number of insects showing bloodsucking behavior in non-treatment group)×100 <Tick Repellency>

In the case of `C=CCc1ccc(O)c(OC)c1` [Eugenol, eugenol, reference compound], the CPT is reported as 10 min.

Compound `COc1cc(C=O)ccc1O` [Vanillin] has a CPT of 30 min.

`COc1cc(CCC(C)=O)ccc1O` [Vanillyl acetone, vanillyl acetone] showed a CPT of 10 min.

For `COc1cc(C=O)ccc1OC(=O)OC(C)(C)C` [tert-butyl 4-formyl-2-methoxyphenyl carbonate], the CPT was 10 min.

vanillin isobutyrate was tested, and the CPT was 45 min.
